From patent US20140213641A1, “POLYMERIC NANOPARTICLES FOR DRUG DELIVERY” (INSTITUT QUIMIC DE SARRIA, priority 2011, published 2014)
Where two headings read alike, the source gives them in different places.

Legend:
[1] = test system: Normal human neural progenitors (NHNP); conditions: 72 h, 50 μM
Protocol: (§1) An ATP-lite assay was carried out over 48 to 72 hours in order to determine cytotoxicity of paclitaxel-loaded nanoparticles comprising a surface-modifying agent compared with that of paclitaxel and empty nanoparticles on healthy brain cell lines and determine IC50 values.
(§2) The formulations tested were as follows: vehicle, empty nanoparticles, decorated paclitaxel-loaded nanoparticles (3.33% paclitaxel by weight; decoration: SEQ ID #5) paclitaxel and etoposide (etoposide is described as having mild toxicity in treatment of brain cancer).
(§3) Three cell lines were tested. Normal human astrocytes (NHA; Lonza) are primary-derived cultures of adherent cells with limited number of divisions. Normal human […] (NHNP; primary cell line; Lonza) are neurosphere growing cells with high number of division that differentiate in adherent […] cells and neurons under specific conditions (laminin coated plates, induction with differentiation factors). Finally, immortalized human neural progenitors (RenCells; Millipore) are fetal brain cells transformed with c-myc oncogene.
(§4) Cells were incubated with treatment for 24 hours (astrocytes) and 72 hours (progenitor cell lines)

[2] = test system: Immortalized human neural progenitors (ReNcells); conditions: 72 h, 50 μM
Protocol: as §1, §2, §3, §4

in vitro = conditions: human
Protocol: as §1, §2, §3, §4

CGL1 = conditions: cells treated for few days, read-out: Paclitaxel metabolic assay (historical data) IC50; cited from earlier work
LN-229 cell line = assay: Clonogenic assay (soft agar colony formation); assay type: cell-based; conditions: Homo sapiens
Protocol: (§5) A clonogenic assay was carried out to observe the toxicity of decorated paclitaxel-loaded nanoparticles compared with that of paclitaxel and empty nanoparticles on glioma cell lines and determine IC50 values in a long term effect (2 to 3 weeks growth). Nanoparticles with or without a surface-modifying agent (SEQ ID#5) were formed according to the method of example 2, with or without inclusion of paclitaxel.
(§6) Three cells lines were used. The CGL-1 cell line (Oncodesign, Dijon, France) was isolated from the TG-1 tumour subcutaneously (SC) implanted in Nude rat. 14 days were allowed for colony formation. The human U-87 MG cell line (American Type Culture Collection) was initiated from a […] glioblastoma from a person. 21 days were allowed for colony formation. Finally, the LN-229 cell line (American Type Culture Collection) was established in 1979 from cells taken from a patient with right frontal parieto-occipital glioblastoma. 14-21 days were allowed for colony formation.
(§7) The formulations tested were as follows: nanoparticles (stock solution NaCl 0.9%); paclitaxel-loaded nanoparticles (3.33% paclitaxel by weight; stock solution NaCl 0.9%); and paclitaxel (stock solution DMSO 100%). All test substances diluted at 100 μM in their respective vehicle to obtain stock solutions. Five concentrations (1:5 or 1:3 dilution steps) were used in triplicate. Formulations were obtained by diluting stock solutions at 100 μM in their respective vehicle to obtain a series of five concentrations in 1:5 or 1:3 dilution steps. Each solution was then further diluted at 1:20 with RPMI 1640 before final dilution at 1:10 into soft agar.
(§8) Repetitions were carried out for GCL-1 at 2 nM, 8 nM, 40 nM, 200 nM and 1000 nM and for LN-229 at 1.2 nM, 3.7 nM, 11 nM, and 33 nM. At least 2 independent experiments were carried out with top concentrations and dilution steps changed when needed. Cells were incubated for 14 to 21 days with the different treatments.
(§9) Results are given in Table 4 and indicate the % survival from the initial 300 clones. Vehicle results not included (100% survival in all cases). The results are shown graphically in FIGS. 4, 5 and 6. Clonogenic tests are based on clones of cells and not cells alone.

U-87 MG cell line = assay: Clonogenic assay (soft agar colony formation); assay type: cell-based; conditions: Homo sapiens
Protocol: as §5, §6, §7, §8, §9

CGL-1 cell line = assay: Clonogenic assay (soft agar colony formation); assay type: cell-based; conditions: 336 h, read-out: IC50 (concentration that inhibits 50% of clones); CGL1, experiment 3, serial dilutions 1:5, highest concentration 1000 nM, 14 days colony formation
Protocol: as §5, §6, §7, §8, §9

U87-MG [3] = conditions: cells treated for few days, read-out: Paclitaxel metabolic assay (historical data) IC50; cited from earlier work
U87-MG [4] = conditions: read-out: literature IC50 values for paclitaxel alone; cited from earlier work

IC50 at 24 h (in vitro) [nM] | IC50 (LN-229 cell line; LN-229, read-out: IC50 (concentration that inhibits 50% of clones), LN229, experiment 4, serial dilutions 1:3, highest concentration 100 nM, 14-21 days colony formation) [nM] | IC50 (LN-229 cell line; LN-229, read-out: IC50 (concentration that inhibits 50% of clones), LN229, experiment 5, serial dilutions 1:3, highest concentration 100 nM, 14-21 days colony formation) [nM] | IC50 (U-87 MG cell line; 504 h, read-out: IC50 (concentration that inhibits 50% of clones), U87-MG, experiment 2, serial dilutions 1:5, highest concentration 500 nM, 21 days colony formation) [nM] | IC50 (U-87 MG cell line; 504 h, read-out: IC50 (concentration that inhibits 50% of clones), U87-MG, experiment 3, serial dilutions 1:5, highest concentration 500 nM, 21 days colony formation) [nM] | IC50 (U-87 MG cell line; U87-MG cells, test repeated, read-out: IC50, repeated test) [nM] | IC50 (CGL-1 cell line) [nM] | SMILES | % survival [1] [%] | % survival [2] [%] | IC50 (CGL1) [nM] | IC50 (U87-MG [3]) [nM] | IC50 (U87-MG [4]) [nM]
~50000 |  |  |  |  |  |  | COc1cc([C@@H]2c3cc4c(cc3[C@@H](O[C@@H]3O[C@@H]5CO[C@@H](C)O[C@H]5[C@H](O)[C@H]3O)[C@H]3COC(=O)[C@H]23)OCO4)cc(OC)c1O [Etoposide, etoposide] | 21 | 3 |  |  | 
 | 7.3 | 21 | 2.6 | 7.5 | 4 to 20 | 792 | CC(=O)O[C@H]1C(=O)[C@@]2(C)[C@H]([C@H](OC(=O)c3ccccc3)[C@]3(O)C[C@H](OC(=O)[C@H](O)[C@@H](NC(=O)c4ccccc4)c4ccccc4)C(C)=C1C3(C)C)[C@]1(OC(C)=O)CO[C@@H]1C[C@@H]2O [Paclitaxel, paclitaxel] |  |  | > 100 | ~10 | 10 to 20
